{"source": "paper PMC5218480", "about": "(PLoS ONE, 2017)", "test_system": "MV-4-11 cells", "assay": "Gene expression microarray analysis (Affymetrix PrimeView) and GSEA", "assay_type": "cell-based, human", "design": "RFU PODN (11730768_x_at) / Fold change /veh PODN (11730768_x_at) / RFU LINC00158 (11744669_a_at) / Fold change /veh LINC00158 (11744669_a_at) / RFU DUSP10 (11751237_a_at) / Fold change /veh DUSP10 (11751237_a_at) / RFU ID3 (11757404_x_at) / Fold change /veh ID3 (11757404_x_at) / RFU PLEKHG5 (11737974_s_at) / Fold change /veh PLEKHG5 (11737974_s_at) / RFU LRRC4B (11730491_at) / Fold change /veh LRRC4B (11730491_at) / RFU GIMAP4 (11747438_a_at) / Fold change /veh GIMAP4 (11747438_a_at) / RFU KRT8 (11758183_x_at) / Fold change /veh KRT8 (11758183_x_at) / RFU CNN1 (11734310_a_at) / Fold change /veh CNN1 (11734310_a_at) / RFU VPS37D (11726825_at) / Fold change /veh VPS37D (11726825_at) / RFU C10orf10 (11716522_x_at) / Fold change /veh C10orf10 (11716522_x_at) / RFU KIR2DL2 /// KIR2DL4 /// KIR2DL5A /// KIR2DL5B /// KIR2DS1 /// KIR2DS2 /// KIR2DS3 /// KIR2DS4 /// KIR3DL3 /// KIR3DL3 /// KIR3DS1 (11738374_at) / Fold change /veh KIR2DL2 /// KIR2DL4 /// KIR2DL5A /// KIR2DL5B /// KIR2DS1 /// KIR2DS2 /// KIR2DS3 /// KIR2DS4 /// KIR3DL3 /// KIR3DL3 /// KIR3DS1 (11738374_at) / RFU C1QL1 (11718748_at) / Fold change /veh C1QL1 (11718748_at) / RFU TMPRSS4 (11747572_a_at) / Fold change /veh TMPRSS4 (11747572_a_at) / RFU HAMP (11756126_x_at) / Fold change /veh HAMP (11756126_x_at) / RFU RNFT2 (11725882_a_at) / Fold change /veh RNFT2 (11725882_a_at) / RFU NR4A2 (11747474_a_at) / Fold change /veh NR4A2 (11747474_a_at) / RFU ABCC12 (11746883_a_at) / Fold change /veh ABCC12 (11746883_a_at) / RFU TMEM136 (11760407_x_at) / Fold change /veh TMEM136 (11760407_x_at) / RFU CLDN22 /// WWC2 (11732394_at) / Fold change /veh CLDN22 /// WWC2 (11732394_at) / RFU HLA-DPB1 (11760878_x_at) / Fold change /veh HLA-DPB1 (11760878_x_at) / RFU SPINT1 (11716480_a_at) / Fold change /veh SPINT1 (11716480_a_at) / RFU GAP43 (11754022_s_at) / Fold change /veh GAP43 (11754022_s_at) / RFU A4GNT (11735810_at) / Fold change /veh A4GNT (11735810_at) / RFU PRB3 (11715151_x_at) / Fold change /veh PRB3 (11715151_x_at) / RFU TUBB4B (11761932_at) / Fold change /veh TUBB4B (11761932_at) / RFU CAPN14 (11732068_a_at) / Fold change /veh CAPN14 (11732068_a_at) / RFU TMCC2 (11721928_a_at) / Fold change /veh TMCC2 (11721928_a_at) / RFU IRGQ (11745062_a_at) / Fold change /veh IRGQ (11745062_a_at) / RFU FAM174B (11720279_a_at) / Fold change /veh FAM174B (11720279_a_at) / RFU TMPRSS4 (11748680_a_at) / Fold change /veh TMPRSS4 (11748680_a_at) / RFU FAM212B (11763350_a_at) / Fold change /veh FAM212B (11763350_a_at) / RFU PLEKHG5 (11743358_a_at) / Fold change /veh PLEKHG5 (11743358_a_at) / RFU ZSCAN30 (11745921_a_at) / Fold change /veh ZSCAN30 (11745921_a_at) / RFU CMKLR1 (11741424_a_at) / Fold change /veh CMKLR1 (11741424_a_at) / RFU LOC101060620 /// MAPK8IP1 (11723275_at) / Fold change /veh LOC101060620 /// MAPK8IP1 (11723275_at) / RFU SPTSSB (11747773_x_at) / Fold change /veh SPTSSB (11747773_x_at) / RFU PRSS12 (11739890_at) / Fold change /veh PRSS12 (11739890_at) / RFU BIN1 (11741810_x_at) / Fold change /veh BIN1 (11741810_x_at) / RFU WNT11 (11732464_a_at) / Fold change /veh WNT11 (11732464_a_at) / RFU C10orf10 (11716521_a_at) / Fold change /veh C10orf10 (11716521_a_at) / RFU C5orf56 (11738089_at) / Fold change /veh C5orf56 (11738089_at) / RFU CYB561 (11721691_x_at) / Fold change /veh CYB561 (11721691_x_at) / RFU ANKRD19P (11752326_a_at) / Fold change /veh ANKRD19P (11752326_a_at) / RFU OR2T12 /// OR2T33 /// OR2T8 (11738714_s_at) / Fold change /veh OR2T12 /// OR2T33 /// OR2T8 (11738714_s_at) / RFU VCAN (11748164_a_at) / Fold change /veh VCAN (11748164_a_at) / RFU JSRP1 (11732532_at) / Fold change /veh JSRP1 (11732532_at) / RFU KRTAP10-11 (11738290_x_at) / Fold change /veh KRTAP10-11 (11738290_x_at) / RFU MYO3A (11730013_a_at) / Fold change /veh MYO3A (11730013_a_at) / RFU EBF3 (11725865_a_at) / Fold change /veh EBF3 (11725865_a_at) / RFU CAMK2N1 (11719241_x_at) / Fold change /veh CAMK2N1 (11719241_x_at) / RFU C5orf56 (11738088_a_at) / Fold change /veh C5orf56 (11738088_a_at) / RFU OLFML3 (11715873_a_at) / Fold change /veh OLFML3 (11715873_a_at) / RFU LOC100653217 /// NTM (11731650_a_at) / Fold change /veh LOC100653217 /// NTM (11731650_a_at) / RFU MAPK11 (11762145_a_at) / Fold change /veh MAPK11 (11762145_a_at) / RFU FIZ1 (11724087_x_at) / Fold change /veh FIZ1 (11724087_x_at) / RFU OASL (11726364_x_at) / Fold change /veh OASL (11726364_x_at) / RFU SOX15 (11748057_x_at) / Fold change /veh SOX15 (11748057_x_at) / RFU CD79A (11719716_a_at) / Fold change /veh CD79A (11719716_a_at) / RFU HIST1H1D (11736915_at) / Fold change /veh HIST1H1D (11736915_at) / RFU CASKIN2 (11723855_a_at) / Fold change /veh CASKIN2 (11723855_a_at) / RFU LOC730098 (11760151_x_at) / Fold change /veh LOC730098 (11760151_x_at) / RFU OR4N2 (11742367_at) / Fold change /veh OR4N2 (11742367_at) / RFU PRRT2 (11749266_a_at) / Fold change /veh PRRT2 (11749266_a_at) / RFU SNX32 (11753110_a_at) / Fold change /veh SNX32 (11753110_a_at) / RFU CDHR5 (11726645_a_at) / Fold change /veh CDHR5 (11726645_a_at) / RFU RCAN1 (11760418_a_at) / Fold change /veh RCAN1 (11760418_a_at) / RFU FAM167A (11723789_a_at) / Fold change /veh FAM167A (11723789_a_at) / RFU FAM26E (11764081_at) / Fold change /veh FAM26E (11764081_at) / RFU ISYNA1 (11749810_s_at) / Fold change /veh ISYNA1 (11749810_s_at) / RFU ACY1 (11761880_at) / Fold change /veh ACY1 (11761880_at) / RFU 11764098_at / Fold change /veh 11764098_at / RFU SAMD14 (11745864_x_at) / Fold change /veh SAMD14 (11745864_x_at) / RFU NPB (11741838_a_at) / Fold change /veh NPB (11741838_a_at) / RFU TMPRSS6 (11731388_a_at) / Fold change /veh TMPRSS6 (11731388_a_at) / RFU KRTAP10-2 (11738614_at) / Fold change /veh KRTAP10-2 (11738614_at) / RFU ARHGAP8 /// PRR5-ARHGAP8 (11727945_x_at) / Fold change /veh ARHGAP8 /// PRR5-ARHGAP8 (11727945_x_at) / RFU KRTAP5-7 /// NADSYN1 (11734609_at) / Fold change /veh KRTAP5-7 /// NADSYN1 (11734609_at) / RFU RASL12 (11751679_a_at) / Fold change /veh RASL12 (11751679_a_at) / RFU CDKN2B (11736163_a_at) / Fold change /veh CDKN2B (11736163_a_at) / RFU PRF1 (11729649_at) / Fold change /veh PRF1 (11729649_at) / RFU, ZNF638 /// ZNF638-IT1 / Fold change vs veh, ZNF638 /// ZNF638-IT1 / RFU, PANK3 / Fold change vs veh, PANK3 / RFU, SH3YL1 / Fold change vs veh, SH3YL1 / RFU, ZEB2 / Fold change vs veh, ZEB2 / RFU, NRIP1 / Fold change vs veh, NRIP1 / RFU, PTTG1IP / Fold change vs veh, PTTG1IP / RFU, CAPN2 / Fold change vs veh, CAPN2 / RFU, MED14 / Fold change vs veh, MED14 / RFU, SNORA58 / Fold change vs veh, SNORA58 / RFU, C1orf63 / Fold change vs veh, C1orf63 / RFU, LRRFIP1 / Fold change vs veh, LRRFIP1 / RFU, NDUFAF7 / Fold change vs veh, NDUFAF7 / RFU, SLC12A2 / Fold change vs veh, SLC12A2 / RFU, IBTK / Fold change vs veh, IBTK / RFU, ESF1 / Fold change vs veh, ESF1 / Fold change vs veh, TMEM50B / RFU, TAOK1 / Fold change vs veh, TAOK1 / RFU, ACBD3 / Fold change vs veh, ACBD3 / RFU, TMA16 / Fold change vs veh, TMA16 / RFU, RWDD3 / Fold change vs veh, RWDD3 / RFU, BCAT1 / Fold change vs veh, BCAT1 / RFU, EDEM3 / Fold change vs veh, EDEM3 / RFU, TMEM33 / Fold change vs veh, TMEM33 / RFU, WDR75 / Fold change vs veh, WDR75 / RFU, AHCTF1 / Fold change vs veh, AHCTF1 / RFU, TFRC / Fold change vs veh, TFRC / RFU, ZDHHC17 / Fold change vs veh, ZDHHC17 / RFU, NOM1 / Fold change vs veh, NOM1 / RFU, ARL8B / Fold change vs veh, ARL8B / RFU, ZBTB11 / Fold change vs veh, ZBTB11 / RFU, TAMM41 / Fold change vs veh, TAMM41 / RFU, KIAA1704 /// LOC100996395 / Fold change vs veh, KIAA1704 /// LOC100996395 / RFU, ING1 / Fold change vs veh, ING1 / RFU, TRMT61B / Fold change vs veh, TRMT61B / RFU, FUBP3 / Fold change vs veh, FUBP3 / RFU, TP53 / Fold change vs veh, TP53 / RFU, TNKS2 / Fold change vs veh, TNKS2 / RFU, ZFP14 / Fold change vs veh, ZFP14 / RFU, ACTR2 / Fold change vs veh, ACTR2 / RFU, PPP3R1 / Fold change vs veh, PPP3R1 / RFU, PIK3R1 / Fold change vs veh, PIK3R1 / RFU, HNRNPA1 / Fold change vs veh, HNRNPA1 / RFU, RNF170 / Fold change vs veh, RNF170 / RFU, ZNF28 / Fold change vs veh, ZNF28 / RFU, RNGTT / Fold change vs veh, RNGTT / RFU, OGT / Fold change vs veh, OGT / RFU, BRD1 / Fold change vs veh, BRD1 / RFU, MARS / Fold change vs veh, MARS / RFU, ZNF655 / Fold change vs veh, ZNF655 / RFU, FAHD1 / Fold change vs veh, FAHD1 / RFU, BDP1 / Fold change vs veh, BDP1 / RFU, LRRCC1 / Fold change vs veh, LRRCC1 / RFU, ARID1A / Fold change vs veh, ARID1A / RFU, ZNF146 / Fold change vs veh, ZNF146 / RFU, ZNF330 / Fold change vs veh, ZNF330 / RFU, GPN3 / Fold change vs veh, GPN3 / RFU, C9orf123 / Fold change vs veh, C9orf123 / RFU, N4BP2L2 / Fold change vs veh, N4BP2L2 / RFU, ARFIP1 / Fold change vs veh, ARFIP1 / RFU, FAM179B / Fold change vs veh, FAM179B / RFU, BCL10 / Fold change vs veh, BCL10 / RFU, UHRF1BP1L / Fold change vs veh, UHRF1BP1L / RFU, BET1 / Fold change vs veh, BET1 / RFU, CNOT2 / Fold change vs veh, CNOT2 / RFU, ZNF268 / Fold change vs veh, ZNF268 / Fold change vs veh, ZNF507 / RFU, DGCR2 / Fold change vs veh, DGCR2 / RFU, WDSUB1 / Fold change vs veh, WDSUB1 / Fold change vs veh, HSP90B1 /// MIR3652 / RFU, ADSS / Fold change vs veh, ADSS / RFU, GK / Fold change vs veh, GK / RFU, ZNF148 / Fold change vs veh, ZNF148 / RFU, TAF9 / Fold change vs veh, TAF9 / RFU, SLC1A5 / Fold change vs veh, SLC1A5 / RFU, SLMO2 / Fold change vs veh, SLMO2 / RFU, ABCC4 / Fold change vs veh, ABCC4 / RFU, LOC101060439 /// RAP1B / Fold change vs veh, LOC101060439 /// RAP1B / RFU, RFX7 / Fold change vs veh, RFX7 / RFU, GTPBP10 / Fold change vs veh, GTPBP10 / RFU, CNEP1R1 / Fold change vs veh, CNEP1R1 / RFU, BIVM-ERCC5 /// ERCC5 / Fold change vs veh, BIVM-ERCC5 /// ERCC5 / RFU, ILF3 / Fold change vs veh, ILF3 / RFU 11762660_at / Fold change /veh 11762660_at / RFU VCAN (11757783_s_at) / Fold change /veh VCAN (11757783_s_at) / RFU DDX43 (11728927_at) / Fold change /veh DDX43 (11728927_at) / RFU KRT8 (11758188_x_at) / Fold change /veh KRT8 (11758188_x_at) / RFU NKD1 (11759106_at) / Fold change /veh NKD1 (11759106_at) / RFU SRD5A1 (11742802_a_at) / Fold change /veh SRD5A1 (11742802_a_at) / RFU TPSAB1 /// TPSB2 (11721975_s_at) / Fold change /veh TPSAB1 /// TPSB2 (11721975_s_at) / RFU GSTM3 (11746129_a_at) / Fold change /veh GSTM3 (11746129_a_at) / RFU IL23R (11737362_x_at) / Fold change /veh IL23R (11737362_x_at) / RFU TMEM51 (11727254_a_at) / Fold change /veh TMEM51 (11727254_a_at) / RFU PIWIL2 (11732686_x_at) / Fold change /veh PIWIL2 (11732686_x_at) / RFU ORM1 (11744905_x_at) / Fold change /veh ORM1 (11744905_x_at) / RFU CCDC152 (11743942_at) / Fold change /veh CCDC152 (11743942_at) / RFU ECM1 (11717891_a_at) / Fold change /veh ECM1 (11717891_a_at) / RFU IL23R (11748794_a_at) / Fold change /veh IL23R (11748794_a_at) / RFU TNFAIP8L3 (11732012_x_at) / Fold change /veh TNFAIP8L3 (11732012_x_at) / RFU MBOAT4 (11741988_at) / Fold change /veh MBOAT4 (11741988_at) / RFU 11764193_at / Fold change /veh 11764193_at / RFU TMEM53 (11763286_at) / Fold change /veh TMEM53 (11763286_at) / RFU MAGEB2 (11727129_at) / Fold change /veh MAGEB2 (11727129_at) / RFU TMEM200A (11744735_a_at) / Fold change /veh TMEM200A (11744735_a_at) / RFU CCDC152 (11751479_a_at) / Fold change /veh CCDC152 (11751479_a_at) / RFU FAM211A (11726209_a_at) / Fold change /veh FAM211A (11726209_a_at) / RFU RGS16 (11746705_a_at) / Fold change /veh RGS16 (11746705_a_at) / RFU VCAN (11755009_s_at) / Fold change /veh VCAN (11755009_s_at) / RFU RHOB (11743442_s_at) / Fold change /veh RHOB (11743442_s_at) / RFU RGS16 (11720943_a_at) / Fold change /veh RGS16 (11720943_a_at) / RFU RGS16 (11720944_at) / Fold change /veh RGS16 (11720944_at) / RFU, VPS4B / Fold change vs veh, VPS4B / RFU, CREB1 / Fold change vs veh, CREB1 / RFU, DNAJC13 / Fold change vs veh, DNAJC13 / RFU, GNAQ / Fold change vs veh, GNAQ / RFU, CDK5R1 / Fold change vs veh, CDK5R1 / RFU, ZRANB3 / Fold change vs veh, ZRANB3 / RFU, CUL4A / Fold change vs veh, CUL4A / RFU, CCNY / Fold change vs veh, CCNY / RFU, UFL1 / Fold change vs veh, UFL1 / RFU, COG3 / Fold change vs veh, COG3 / RFU, DIAPH2 / Fold change vs veh, DIAPH2 / RFU, SKA2 / Fold change vs veh, SKA2 / RFU, AFF3 / Fold change vs veh, AFF3 / RFU, LMF1 / Fold change vs veh, LMF1 / RFU, IPO11 / Fold change vs veh, IPO11 / RFU, DFFB / Fold change vs veh, DFFB / RFU, FOXP1 / Fold change vs veh, FOXP1 / RFU, CARD8 / Fold change vs veh, CARD8 / RFU, STRN3 / Fold change vs veh, STRN3 / RFU, ADK / Fold change vs veh, ADK / RFU, RASSF2 / Fold change vs veh, RASSF2 / RFU, WIPF1 / Fold change vs veh, WIPF1 / RFU, LARP1B / Fold change vs veh, LARP1B / RFU, RASA1 / Fold change vs veh, RASA1 / RFU, RB1 / Fold change vs veh, RB1 / RFU, PPFIA1 / Fold change vs veh, PPFIA1 / RFU, MAT2A / Fold change vs veh, MAT2A / RFU, CCT5 / Fold change vs veh, CCT5 / RFU, WDR92 / Fold change vs veh, WDR92 / RFU, CUX1 / Fold change vs veh, CUX1 / RFU, TTC7A / Fold change vs veh, TTC7A / RFU, TMEM135 / Fold change vs veh, TMEM135 / RFU, DEPTOR / Fold change vs veh, DEPTOR / RFU, CPM / Fold change vs veh, CPM / RFU, DNAJB6 / Fold change vs veh, DNAJB6 / RFU, CACNA2D3 / Fold change vs veh, CACNA2D3 / RFU, DTX4 / Fold change vs veh, DTX4 / RFU, TFCP2 / Fold change vs veh, TFCP2 / RFU, GMCL1 /// GMCL1P1 / Fold change vs veh, GMCL1 /// GMCL1P1 / RFU, AEBP2 / Fold change vs veh, AEBP2 / RFU, SNHG1 /// SNORD22 /// SNORD25 /// SNORD26 /// SNORD27 /// SNORD28 /// SNORD29 /// SNORD31 / Fold change vs veh, SNHG1 /// SNORD22 /// SNORD25 /// SNORD26 /// SNORD27 /// SNORD28 /// SNORD29 /// SNORD31 / Fold change (Aza/veh), C12orf56 (ProbeSet 11735607_a_at) / Fold change (ACY-1035/veh), C12orf56 (ProbeSet 11735607_a_at) / Fold change (Aza/veh), FGFR1OP (ProbeSet 11751329_s_at) / Fold change (ACY-1035/veh), FGFR1OP (ProbeSet 11751329_s_at) / Fold change (Aza/veh), VPS36 (ProbeSet 11739960_a_at) / Fold change (ACY-1035/veh), VPS36 (ProbeSet 11739960_a_at) / RFU SYPL1 (11715823_x_at) / Fold change /veh SYPL1 (11715823_x_at) / RFU IGFBP7 (11715501_s_at) / Fold change /veh IGFBP7 (11715501_s_at) / RFU REEP3 (11722064_at) / Fold change /veh REEP3 (11722064_at) / RFU IGLL1 (11728026_x_at) / Fold change /veh IGLL1 (11728026_x_at): dose or concentration left out as unconfirmed", "conditions": "MV-4-11 cells, 48 hours", "data": [{"smiles": "Nc1ccc(-c2cccs2)cc1NC(=O)c1ccc2c(c1)cc(C1CC1)n2CCN1CCOCC1", "note": "[ACY-1035]", "values": [{"measurement": "RFU FAM174B (11720279_a_at)", "value": 24.40, "unit": "RFU"}]}]}
